The source of these data is the supplement of paper PMC10307832.

Holding throughout (experiment): relative viability (nuclei count vs DMSO), 5 days (fraction); higher = more cells survive
Compound in the test “OSI-027 + Navitoclax”: COc1cccc2cc(-c3nc([C@H]4CC[C@H](C(=O)O)CC4)n4ncnc(N)c34)[nH]c12 [OSI-027] + CC1(C)CCC(c2ccc(Cl)cc2)=C(CN2CCN(c3ccc(C(=O)NS(=O)(=O)c4ccc(N[C@H](CCN5CCOCC5)CSc5ccccc5)c(S(=O)(=O)C(F)(F)F)c4)cc3)CC2)C1 [Navitoclax] (partner 0.5 µM)
The procedure, abridged:
(§1)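 The day after seeding in 1536-well plates, lung cancer cell lines were treated by pin tool with a single drug, or with a fixed anchor-drug dose together with five library-drug doses (not always all listed) in √10 steps. After 5 days, a combined fix-and-stain solution (final 0.05% Triton X-100, 1% formaldehyde, 1 ug/ml Hoechst) was added. Nuclei counted on 4× images gave relative viability as treated counts over vehicle counts, reported as the median of duplicate plates.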

Compound in the test “OSI-027 + Crizotinib”: COc1cccc2cc(-c3nc([C@H]4CC[C@H](C(=O)O)CC4)n4ncnc(N)c34)[nH]c12 [OSI-027] + C[C@@H](Oc1cc(-c2cnn(C3CCNCC3)c2)cnc1N)c1c(Cl)ccc(F)c1Cl [Crizotinib] (partner 1 µM)
The procedure, abridged:
as §1

Compound in the test “Vemurafenib + Dasatinib”: CCCS(=O)(=O)Nc1ccc(F)c(C(=O)c2c[nH]c3ncc(-c4ccc(Cl)cc4)cc23)c1F [Vemurafenib] + Cc1nc(Nc2ncc(C(=O)Nc3c(C)cccc3Cl)s2)cc(N2CCN(CCO)CC2)n1 [Dasatinib] (partner 0.075 µM)
The procedure, abridged: as §1

Compound in the test “Vemurafenib + AZD7762”: CCCS(=O)(=O)Nc1ccc(F)c(C(=O)c2c[nH]c3ncc(-c4ccc(Cl)cc4)cc23)c1F [Vemurafenib] + NC(=O)Nc1cc(-c2cccc(F)c2)sc1C(=O)N[C@H]1CCCNC1 [AZD7762] (partner 0.2 µM)
Put shortly: as §1

On to ChaGo-K-1, for which the relative viability turned out to be 0.988 with OSI-027 + Navitoclax (first compound 0.01 µM); 1.4 with OSI-027 + Navitoclax (first compound 0.03162 µM); 0.533 with OSI-027 + Navitoclax (first compound 0.1 µM); 0.759 in the test with OSI-027 + Navitoclax (first compound 0.3162 µM); 0.713 in the test with OSI-027 + Navitoclax (first compound 1 µM); 1.38 in the test with OSI-027 + Crizotinib (first compound 0.01 µM). The relative viability in the test with OSI-027 + Crizotinib (first compound 0.03162 µM) is 1.02; with OSI-027 + Crizotinib (first compound 0.1 µM), 1.2; with OSI-027 + Crizotinib (first compound 0.3162 µM) it was 0.997; in the test with OSI-027 + Crizotinib (first compound 1 µM), 0.922; with Vemurafenib + Dasatinib (first compound 0.03162 µM), 0.511; with Vemurafenib + Dasatinib (first compound 0.1 µM), 0.517. The relative viability with Vemurafenib + Dasatinib (first compound 0.3162 µM) stood at 0.396; with Vemurafenib + Dasatinib (first compound 1 µM) it was 0.6; with Vemurafenib + AZD7762 (first compound 0.03162 µM) it was 0.818; with Vemurafenib + AZD7762 (first compound 0.1 µM) it was 0.853; with Vemurafenib + AZD7762 (first compound 0.3162 µM), 0.738; in the test with Vemurafenib + AZD7762 (first compound 1 µM), 0.882.

Consider NCI-H1944, for which the relative viability in the test with OSI-027 + Navitoclax (first compound 0.01 µM) came out at 1.1; with OSI-027 + Navitoclax (first compound 0.03162 µM), 1.04; with OSI-027 + Navitoclax (first compound 0.1 µM), 1.03; with OSI-027 + Navitoclax (first compound 0.3162 µM), 0.963; with OSI-027 + Navitoclax (first compound 1 µM), 0.719; in the test with OSI-027 + Crizotinib (first compound 0.01 µM), 1.18. Also, the relative viability with OSI-027 + Crizotinib (first compound 0.03162 µM) was 1.18; with OSI-027 + Crizotinib (first compound 0.1 µM), 1.1; in the test with OSI-027 + Crizotinib (first compound 0.3162 µM), 0.918; with OSI-027 + Crizotinib (first compound 1 µM) it was 0.596; with Vemurafenib + Dasatinib (first compound 0.03162 µM), 0.198; with Vemurafenib + Dasatinib (first compound 0.1 µM), 0.189. Moreover, the relative viability in the test with Vemurafenib + Dasatinib (first compound 0.3162 µM) worked out at 0.192; with Vemurafenib + Dasatinib (first compound 1 µM) it was 0.199; with Vemurafenib + AZD7762 (first compound 0.03162 µM) it was 0.515; with Vemurafenib + AZD7762 (first compound 0.3162 µM) it was 0.426; in the test with Vemurafenib + AZD7762 (first compound 1 µM) it was 0.57.

As to H3255, the relative viability in the test with OSI-027 + Navitoclax (first compound 0.01 µM) turned out to be 0.411; in the test with OSI-027 + Navitoclax (first compound 0.03162 µM) it was 0.483; in the test with OSI-027 + Navitoclax (first compound 0.1 µM), 0.442; with OSI-027 + Navitoclax (first compound 0.3162 µM), 0.428; with OSI-027 + Navitoclax (first compound 1 µM) it was 0.227; in the test with OSI-027 + Crizotinib (first compound 0.01 µM), 0.842. The relative viability amounted to 0.838 in the test with OSI-027 + Crizotinib (first compound 0.03162 µM); 0.76 in the test with OSI-027 + Crizotinib (first compound 0.1 µM); 0.886 in the test with OSI-027 + Crizotinib (first compound 0.3162 µM); 0.587 with OSI-027 + Crizotinib (first compound 1 µM); 0.36 with Vemurafenib + Dasatinib (first compound 0.03162 µM); 0.446 with Vemurafenib + Dasatinib (first compound 0.3162 µM). Also, the relative viability stood at 0.371 with Vemurafenib + Dasatinib (first compound 1 µM), 0.843 with Vemurafenib + AZD7762 (first compound 0.03162 µM), 0.723 with Vemurafenib + AZD7762 (first compound 0.3162 µM) and 0.949 in the test with Vemurafenib + AZD7762 (first compound 1 µM).

NCI-H2087: the relative viability in the test with OSI-027 + Navitoclax (first compound 0.01 µM) came out at 1.09; with OSI-027 + Navitoclax (first compound 0.03162 µM), 0.998; with OSI-027 + Navitoclax (first compound 0.1 µM) it was 0.8; with OSI-027 + Navitoclax (first compound 0.3162 µM), 0.537; with OSI-027 + Navitoclax (first compound 1 µM) it was 0.353; with OSI-027 + Crizotinib (first compound 0.01 µM), 0.991. Besides, the relative viability with OSI-027 + Crizotinib (first compound 0.03162 µM) was found to be 0.971; with OSI-027 + Crizotinib (first compound 0.1 µM) it was 0.753; with OSI-027 + Crizotinib (first compound 0.3162 µM), 0.866; in the test with OSI-027 + Crizotinib (first compound 1 µM), 0.53; with Vemurafenib + Dasatinib (first compound 0.03162 µM) it was 0.751; in the test with Vemurafenib + Dasatinib (first compound 0.1 µM), 0.789. In addition, the relative viability turned out to be 0.897 in the test with Vemurafenib + Dasatinib (first compound 1 µM); 1.12 with Vemurafenib + AZD7762 (first compound 0.03162 µM); 1.31 in the test with Vemurafenib + AZD7762 (first compound 0.1 µM); 1.09 with Vemurafenib + AZD7762 (first compound 0.3162 µM); 1.19 with Vemurafenib + AZD7762 (first compound 1 µM).

On to RERF-LC-KJ, for which the relative viability is 0.795 in the test with OSI-027 + Navitoclax (first compound 0.01 µM); 1 with OSI-027 + Navitoclax (first compound 0.03162 µM); 0.839 in the test with OSI-027 + Navitoclax (first compound 0.1 µM); 0.672 with OSI-027 + Navitoclax (first compound 0.3162 µM); 0.289 with OSI-027 + Navitoclax (first compound 1 µM); 0.884 in the test with OSI-027 + Crizotinib (first compound 0.01 µM). In addition, the relative viability came out at 0.938 with OSI-027 + Crizotinib (first compound 0.03162 µM); 0.861 in the test with OSI-027 + Crizotinib (first compound 0.1 µM); 0.805 in the test with OSI-027 + Crizotinib (first compound 0.3162 µM); 0.484 in the test with OSI-027 + Crizotinib (first compound 1 µM); 0.768 in the test with Vemurafenib + Dasatinib (first compound 0.03162 µM); 0.768 in the test with Vemurafenib + Dasatinib (first compound 0.1 µM). Moreover, the relative viability worked out at 0.586 with Vemurafenib + Dasatinib (first compound 0.3162 µM); 0.786 with Vemurafenib + Dasatinib (first compound 1 µM); 0.874 with Vemurafenib + AZD7762 (first compound 0.03162 µM); 1.01 in the test with Vemurafenib + AZD7762 (first compound 0.1 µM); 0.663 with Vemurafenib + AZD7762 (first compound 0.3162 µM); 1.08 with Vemurafenib + AZD7762 (first compound 1 µM).
